The values that follow come from patent US11987578B1, “7-(4-((5-(2-chlorobenzylideneamino)-2-thioxo-1,3,4-thiadiazol-3(2H)-yl)methyl)piperazin-1-yl)-1-cyclopropyl-6-fluoro-4-oxo-1,4-dihydroquinoline-3-carboxylic acid as an anti-inflammatory compound” (KING FAISAL UNIVERSITY, priority 2023, dated 2024).

In one data set the target is Bovine Serum Albumin (Bos taurus, UniProt P02769). Briefly: Bovine Serum Albumin Assay (BSA), inhibition of heat-induced protein denaturation. In kind it is biochemical. How it is done: Bovine Serum Albumin Assay (BSA) In vitro-inflammatory activities of the tested samples were determined using a modified method of the BSA assay reported by Williams et al. BSA solution (0.4%, w/v) was prepared in Tris Buffered Saline. The pH was adjusted to 6.4 with glacial acetic acid. Different dilutions of 20, 40, 60, 80, and 100 μg/mL of 7-(4-((5-(2-chlorobenzylideneamino)-2-thioxo-1,3,4-thiadiazol-3(2H)-yl)methyl)piperazin-1-yl)-1-cyclopropyl-6-fluoro-4-oxo-1,4-dihydroquinoline-3-carboxylic acid stock solutions were added to test tubes containing 1 mL of 0.4%, w/v BSA buffer solution. Both negative (solvent) and positive (aspirin) controls were assayed in a similar manner. The solutions were then heated in a water bath at 72° C. for 10 minutes and cooled for 20 minutes under laboratory conditions. The turbidity of the solutions (level of protein precipitation) was measured at 660 nm in Spectrophotometer (V-770 UV-Visible/NIR Spectrophotometer). The percentage inhibition of precipitation (protein denaturation) was determined relative to the negative control using the following equation: [formula]

Where two headings read alike, the source gives them in different places.

Sequence of Bovine Serum Albumin (P02769 25-607): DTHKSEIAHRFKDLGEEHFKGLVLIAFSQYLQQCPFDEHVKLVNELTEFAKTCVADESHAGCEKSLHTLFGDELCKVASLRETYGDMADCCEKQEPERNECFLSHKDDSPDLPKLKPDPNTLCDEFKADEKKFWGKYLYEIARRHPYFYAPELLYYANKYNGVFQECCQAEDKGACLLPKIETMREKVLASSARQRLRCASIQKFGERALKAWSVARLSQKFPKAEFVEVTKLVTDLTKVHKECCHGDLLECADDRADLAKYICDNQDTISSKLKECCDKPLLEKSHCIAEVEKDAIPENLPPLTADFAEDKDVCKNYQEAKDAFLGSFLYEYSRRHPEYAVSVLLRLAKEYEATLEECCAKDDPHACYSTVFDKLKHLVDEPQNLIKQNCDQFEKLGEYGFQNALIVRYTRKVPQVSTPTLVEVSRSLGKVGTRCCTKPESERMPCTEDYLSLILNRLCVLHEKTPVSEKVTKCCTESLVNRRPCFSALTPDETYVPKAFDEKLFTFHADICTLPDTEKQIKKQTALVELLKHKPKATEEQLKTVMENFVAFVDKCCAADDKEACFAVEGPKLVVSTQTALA

Take `CC(=O)Oc1ccccc1C(=O)O` [aspirin, reference compound]: the inhibition at 100 µg/mL at Bovine Serum Albumin (100 μg/ml, 0.4% w/v BSA, pH 6.4, 72° C. for 10 minutes, turbidity at 660 nm, relative to negative control, read-out: percentage inhibition of precipitation (protein denaturation)) stood at 96.8%.

The term melting point denotes the temperature of the solid-liquid transition. In turn, `O=C(O)c1cn(C2CC2)c2cc(N3CCN(Cn4nc(/N=C/c5ccccc5Cl)sc4=S)CC3)c(F)cc2c1=O` [7-(4-((5-(2-chlorobenzylideneamino)-2-thioxo-1,3,4-thiadiazol-3(2H)-yl)methyl)piperazin-1-yl)-1-cyclopropyl-6-fluoro-4-oxo-1,4-dihydroquinoline-3-carboxylic acid] had a melting point of 207 to 209 °C. Also, the “in vitro anti-inflammatory activity” value on Bovine Serum Albumin (BSA assay, result in words) is “considerable anti-inflammatory effect”. Further, the inhibition at 100 µg/mL on Bovine Serum Albumin (pH 6.4, read-out: percentage inhibition of precipitation (protein denaturation)) was 90.2%.
